pKi: −log10 of the molar value. ≈ marks a conversion by molar mass, not a printed value. Like-named read-outs stand apart in the source and are kept apart here.
Legend:
[1] = target: T1, bCA IV (Bos taurus, UniProt Q95323); test: CA inhibition, esterase method (4-nitrophenylacetate hydrolysis)
T1 sequence (Q95323 19-284): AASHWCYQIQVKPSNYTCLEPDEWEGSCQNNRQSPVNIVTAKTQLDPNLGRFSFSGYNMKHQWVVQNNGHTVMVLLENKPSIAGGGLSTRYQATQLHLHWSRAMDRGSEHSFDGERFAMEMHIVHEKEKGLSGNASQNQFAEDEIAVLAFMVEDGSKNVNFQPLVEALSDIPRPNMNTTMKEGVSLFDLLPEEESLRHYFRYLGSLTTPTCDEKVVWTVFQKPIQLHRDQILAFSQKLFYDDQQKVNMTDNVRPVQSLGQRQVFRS
Procedure: (§1) Stock solutions of inhibitor (1 mM) are prepared in distilled-deionized water with 10-20% (v/v) DMSO (which is not inhibitory at these concentrations) and dilutions up to 0.01 nM are done thereafter with distilled-deionized water. Inhibitor and enzyme solutions are preincubated together for 10 min at room temperature prior to assay, in order to allow for the formation of the E-I complex.

[2] = target: hCA II (Homo sapiens, UniProt P00918); test: as above
Procedure: as §1

[3] = target: hCA I (Homo sapiens, UniProt P00915); test: as above
Procedure: as §1

[4] = chloroform-buffer partition coefficient; type: physicochemical; conditions: pH 7.4 phosphate buffer, B compounds as sodium salts
Procedure: The determination of partition coefficient is performed as follows. Chloroform - buffer partition coefficients are obtained by equilibrating the test compound between chloroform and 0.1-ionic strength pH 7.4 phosphate buffer. The concentration in each phase is determined by UV spectrophotometry or HPLC.

[5] = solubility in aqueous buffer (UV of saturated solution); conditions: 25 °C, pH 7.4, aqueous buffer, thermodynamic from solid
Procedure: The determination of solubility in aqueous buffer is performed as follows. […] The UV absorption maximum of each compound is determined (with a Cary 3 spectrophotometer) eventually diluting the solution (with MeOH) as necessary. […] The obtained saturated solution is filtered in order to remove solid compound through a Millipore 0.45 µm filter and scanned by UV at the wavelength of the absorption maximum previously determined. Total solubility is determined by the relationship: C' = A'C/A, where C = concentration of standard solution (mg/mL); A = absorbance of standard solution; A' = absorbance of the saturated solution; C' = concentration of the saturated solution (mg/mL).

[6] = transcorneal penetration of drugs (in vitro corneal permeability); conditions: rate constant of transfer across excised rabbit cornea, pH 7.4; for kin x 10^3 (hr^-1) No epithelium: denuded epithelium; for kin x 10^3 (hr^-1) Cornea intact: intact epithelium
Procedure: The determination of transcorneal penetration of drugs is performed as follows. […] Excised rabbit corneas with either intact or denuded epithelium are used in these experiments. The pH is 7.4 and exposed area is 1.2 cm^2. Concentrations of drug of 40 - 2000 µM are placed in the epithelial chamber and samples of fluid are collected from the endothelial chamber at different intervals, up to 4 hr.

[7] = test system: IOP of normotensive rabbits; test: tonometric measurement of IOP after topical administration; type: in vivo, New Zealand albino rabbits; conditions: topical 2% solution (Fig. 2)
Procedure: Tonometric measurement of IOP are performed as follows.
Adult male New Zealand albino rabbits weighing 3-3.5 kg are used in the experiments. Three animals are used for each inhibitor studied. The experimental procedures conform to the Association for Research in Vision and Ophthalmology Resolution on the use of animals. The rabbits are kept in individual cages with food and water provided ad libitum and maintained on a 12 h light/dark cycle in a temperature controlled room, at 22-26 °C. Solutions and suspensions of inhibitors (2 %, by weight, as hydrochlorides, or sodium carboxylates) are made in distilled deionized water. The pH of these solutions is in the range of 5.5 - 7.4.
IOP is measured using a Digilab 30R pneumatonometer (BioRad, Cambridge, MA, USA) as described by Maren et al. (Maren et al., Exp. Eye Res. 55:73-79, 1992; Brechue et al., Invest. Ophthalmol. Vis. Sci. 34:2581-2587,1993). The pressure readings are matched with two-point standard pressure measurements at least twice each day using a Digilab Calibration verifier. All IOP measurements are done by the same investigator with the same tonometer. One drop of 0.2 % oxybuprocaine hydrochloride (novesine, Sandoz) diluted 1:1 with saline is instilled in each eye immediately before each set of pressure measurements. IOP is measured three times at each time interval, and the means reported. IOP is measured first immediately before drug administration, then at 30 min after the instillation of the pharmacological agent, and then each 30 minutes for a period of 4-6 hours. For all IOP experiments drug is administered to only one eye, leaving the contralateral eye as an untreated control. The ocular hypotensive activity is expressed as the average difference in IOP between the treated and control eye, in this way minimizing the diurnal, seasonal and inter-individual variations commonly observed in the rabbit (Id.). All data are expressed as mean ± SE. Ocular hypertension is elicited in the right eye of albino rabbits by the injection of α-chymotrypsin (from Sigma) as described by Sugrue et al. (Sugrue et al., Br. J. Pharmacol. 99:59-64, 1990). The IOP of operated animals is checked after approximately four weeks, and animals with an elevated pressure of 30-36 mm Hg are used at least one month after the injection of α-chymotrypsin.
In vivo IOP lowering experiments are done in normotensive and glaucomatous rabbits, with many of the new compounds reported here, due to their strong CA II and CA IV inhibitory properties, such as B7, B10-B13, B15, B18-B22, B25, B27, B28, B33, B37, and A40. […] Measurements are at 30, 60 and 90 min after administration Table 3.

Chain of hCA I (P00915 whole entry): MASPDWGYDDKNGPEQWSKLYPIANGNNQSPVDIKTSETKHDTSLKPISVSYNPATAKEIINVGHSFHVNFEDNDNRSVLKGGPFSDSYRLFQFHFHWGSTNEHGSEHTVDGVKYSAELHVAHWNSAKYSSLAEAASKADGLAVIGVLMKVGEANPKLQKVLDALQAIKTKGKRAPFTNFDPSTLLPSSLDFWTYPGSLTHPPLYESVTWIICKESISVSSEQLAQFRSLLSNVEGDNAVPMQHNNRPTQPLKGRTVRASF

| Structure (SMILES) | pKi [2] | pKi [3] | pKi [1] | also measured |
| --- | --- | --- | --- | --- |
| NS(=O)(=O)c1cc(Cl)c(Cl)c(S(N)(=O)=O)c1 [Dichlorophenamide 6, dichlorophenamide, reference compound] |  |  |  | Ki ([1]; read-out: KI (nM) bCA IV, From bovine lung microsomes, by the esterase method, pH 7.40, 25°C): 380 nM |
| NS(=O)(=O)c1ccc(CNC(=S)NCC(=O)O)cc1 [B14, 1-(4-Sulfamoylphenylmethyl)-3-(carboxymethyl)-thiourea] | 7.77 | 7.25 | 7.47 |  |
| NS(=O)(=O)c1ccc(CNC(=S)NCC(=O)NCC(=O)O)cc1 [B39] | 7.89 | 7.30 | 7.59 |  |
| NS(=O)(=O)c1ccc(CN=C=S)cc1 [B, 4-isothiocyanatomethyl-benzenesulfonamide] | 6.79 | 5.37 | 6.57 |  |
| CCOc1ccc2nc(S(N)(=O)=O)sc2c1 [Ethoxzolamide, ethoxzolamide, reference compound] |  |  |  | Log P [4]: 1.40; solubility at 3 h ([5]; phosphate buffer): 0.04 mM (≈ 0.0103 mg/mL) |
| NS(=O)(=O)c1ccc(CNC(=S)NCCc2c[nH]cn2)cc1 [B10, 1-(4-Sulfamoylphenylmethyl)-3-[(1H-imidazol)-4-yl-ethyl]-thiourea] | 7.52 | 7.06 | 7.28 |  |
| NS(=O)(=O)c1ccc(CNC(=S)NC(Cc2ccccc2)C(=O)O)cc1 (stereo not drawn) [B33, 1-(4-Sulfamoylphenylmethyl)-3-(1-carboxy-2-phenyl-ethyl)-thiourea] | 8.30 | 7.57 | 7.85 |  |
| NS(=O)(=O)c1ccc(CNC(=S)NCCc2ccccn2)cc1 [B8] | 7.42 | 6.92 | 7.12 |  |
| CC(O)C(NC(=S)NCc1ccc(S(N)(=O)=O)cc1)C(=O)O (stereo not drawn) [B21] | 8.70 | 7.62 | 7.89 |  |
| NS(=O)(=O)c1ccc(CNC(=S)NCCC(=O)NC(Cc2cnc[nH]2)C(=O)O)cc1 (stereo not drawn) [B40] | 8.40 | 7.66 | 8.05 | kin x 10^3 (hr^-1) No epithelium [6]: 5.9 hr^-1; kin x 10^3 (hr^-1) Cornea intact [6]: 2.8 hr^-1; Log P [4]: 0.933; solubility at 3 h [5]: 57 mM (≈ 25.9 mg/mL) |
| NS(=O)(=O)c1ccc(CNC(=S)NC(CC(=O)O)C(=O)NC(CC(=O)O)C(=O)O)cc1 (stereo not drawn) [B45] | 7.92 | 7.43 | 7.60 |  |
| NS(=O)(=O)c1ccc(CNC(=S)NC(Cc2cnc[nH]2)C(=O)O)cc1 (stereo not drawn) [B32] | 8.22 | 7.48 | 7.85 |  |
| CC(=O)Nc1nnc(S(N)(=O)=O)s1 [Acetazolamide, acetazolamide, reference compound] |  |  |  | kin x 10^3 (hr^-1) No epithelium [6]: 7.0 hr^-1; kin x 10^3 (hr^-1) Cornea intact [6]: 0.37 hr^-1 |
| NS(=O)(=O)c1ccc(CNC(=S)NC(CCC(=O)O)C(=O)O)cc1 (stereo not drawn) [B29] | 8.00 | 7.41 | 7.64 |  |
| NS(=O)(=O)c1ccc(CNC(=S)Nc2cccc(C(=O)O)c2)cc1 [B12] | 8.00 | 7.42 | 7.54 | kin x 10^3 (hr^-1) No epithelium [6]: 8.7 hr^-1; kin x 10^3 (hr^-1) Cornea intact [6]: 3.0 hr^-1; Log P [4]: 1.313; solubility ([5]; phosphate buffer): 40 mM (≈ 14.6 mg/mL) |
| CC(C)CC(NC(=S)NCc1ccc(S(N)(=O)=O)cc1)C(=O)NCC(=O)O (stereo not drawn) [B44] | 8.40 | 7.70 | 7.96 |  |
| NS(=O)(=O)c1ccc(CNC(=S)NCCC(=O)O)cc1 [B16] | 8.10 | 7.41 | 7.55 |  |
| NS(=O)(=O)c1ccc(CNC(=S)NC(CC(=O)O)C(=O)NC(CC(=O)O)C(=O)NC(CC(=O)O)C(=O)NC(CC(=O)O)C(=O)O)cc1 (stereo not drawn) [B47] | 8.05 | 7.29 | 7.62 |  |
| CSCCC(NC(=S)NCc1ccc(S(N)(=O)=O)cc1)C(=O)O (stereo not drawn) [B23] | 8.52 | 7.72 | 8.00 |  |
| NCCCCC(NC(=S)NCc1ccc(S(N)(=O)=O)cc1)C(=O)O (stereo not drawn) [B37] | 8.00 | 7.14 | 7.47 |  |
| CC(C)C(NC(=S)NCc1ccc(S(N)(=O)=O)cc1)C(=O)O (stereo not drawn) [B24] | 8.40 | 7.70 | 8.05 |  |

| Structure (SMILES) | pKi [2] | pKi [3] | pKi [1] | also measured |
| --- | --- | --- | --- | --- |
| NC(=O)CCC(NC(=S)NCc1ccc(S(N)(=O)=O)cc1)C(=O)O (stereo not drawn) [B30] | 8.05 | 7.44 | 7.68 |  |
| CC(=O)/N=c1/sc(S(N)(=O)=O)nn1C [Methazolamide, methazolamide, reference compound] |  |  |  | kin x 10^3 (hr^-1) No epithelium [6]: 13 hr^-1; kin x 10^3 (hr^-1) Cornea intact [6]: 1.90 hr^-1; Log P [4]: 0.06 |
| NS(=O)(=O)c1ccc(CNC(=S)NC(Cc2cnc[nH]2)C(=O)NC(Cc2ccccc2)C(=O)O)cc1 (stereo not drawn) [B42] | 8.70 | 7.72 | 8.15 |  |
| NS(=O)(=O)c1ccc(CNC(=S)N2CCCC2C(=O)NCC(=O)NCC(=O)O)cc1 (stereo not drawn) [B46] | 8.52 | 7.66 | 8.10 |  |
| NS(=O)(=O)c1ccc(CNC(=S)NCCCC(=O)O)cc1 [B17] | 8.00 | 7.40 | 7.57 |  |
| NS(=O)(=O)c1ccc(CNC(=S)NC(C(=O)O)c2ccccc2)cc1 (stereo not drawn) [B18] | 8.30 | 7.40 | 7.92 | kin x 10^3 (hr^-1) No epithelium [6]: 12.0 hr^-1; kin x 10^3 (hr^-1) Cornea intact [6]: 5.6 hr^-1; Log P [4]: 3.721; solubility ([5]; phosphate buffer): 59 mM (≈ 22.4 mg/mL) |
| NC(=O)CC(NC(=S)NCc1ccc(S(N)(=O)=O)cc1)C(=O)O (stereo not drawn) [B28] | 8.30 | 7.66 | 8.05 | IOP returns to baseline values after ... from administration [7]: 5 to 6 h |
| NS(=O)(=O)c1ccc(CNC(=S)NCc2ccccn2)cc1 [B7] | 7.37 | 6.91 | 7.13 |  |
| CC(C)CC(NC(=S)NCc1ccc(S(N)(=O)=O)cc1)C(=O)O (stereo not drawn) [B25] | 8.52 | 7.77 | 7.96 |  |
| NS(=O)(=O)c1ccc(CNC(=S)NC(Cc2ccc(O)c(O)c2)C(=O)O)cc1 (stereo not drawn) [B35] | 8.22 | 7.52 | 7.85 |  |
| NS(=O)(=O)c1ccc(CNC(=S)NC(Cc2c[nH]c3ccccc23)C(=O)O)cc1 (stereo not drawn) [B36] | 8.05 | 7.38 | 7.77 |  |
| CC(NC(=S)NCc1ccc(S(N)(=O)=O)cc1)C(=O)O (stereo not drawn) [B15] | 8.00 | 7.32 | 7.54 |  |
| NS(=O)(=O)c1ccc(CNC(=S)NC(Cc2cnc[nH]2)C(=O)NCC(=O)O)cc1 (stereo not drawn) [B41] | 9.00 | 7.92 | 8.30 |  |
| CCC(C)C(NC(=S)NCc1ccc(S(N)(=O)=O)cc1)C(=O)O (stereo not drawn) [B26, 1-(4-Sulfamoylphenylmethyl)-3-(1-carboxy-2-methyl-butyl)-thiourea] | 8.40 | 7.74 | 8.10 |  |
| NS(=O)(=O)c1ccc(CNC(=S)NC(Cc2ccc(O)cc2)C(=O)O)cc1 (stereo not drawn) [B34] | 8.52 | 7.62 | 8.05 |  |
| NS(=O)(=O)c1ccc(CNC(=S)NC(CC(=O)O)C(=O)O)cc1 (stereo not drawn) [B27] | 8.15 | 7.57 | 7.82 |  |
| NS(=O)(=O)c1ccc(CNC(=S)N2CCCC2C(=O)O)cc1 (stereo not drawn) [B31] | 7.68 | 7.05 | 7.26 |  |
| CC(NC(=S)NCc1ccc(S(N)(=O)=O)cc1)C(=O)NC(Cc1ccccc1)C(=O)O (stereo not drawn) [B43] | 8.52 | 7.68 | 8.00 |  |
| N=C(N)NCCCC(NC(=S)NCc1ccc(S(N)(=O)=O)cc1)C(=O)O (stereo not drawn) [B38] | 7.74 | 6.99 | 7.25 |  |
| NS(=O)(=O)c1ccc(CNC(=S)NCCc2ccccc2)cc1 [B9] | 7.41 | 6.90 | 7.12 |  |

Source: patent EP1421935A1 (Casini, Angela, priority 2002, dated 2004)
